Experimental data published in patent US20190343828A1, “CAMPTOTHECIN PEPTIDE CONJUGATES” (SEATTLE GENETICS, INC., priority 2018, published 2019).
pIC50: −log10 of the molar value.

Key:
[1] = test system: multiple myeloma cells (MM.1R); experiment: In vitro cytotoxicity, CellTiter-Glo 96 h, MM.1R; conditions: read-out: Cytotoxic potency (IC50 class), MM.1R
Description: (§1) In vitro potency was assessed on multiple cancer cell lines. All cell lines were authenticated by STR profiling at IDEXX Bioresearch and cultured for no more than 2 months after resuscitation. Cells cultured in log-phase growth were seeded for 24 hours in 96-well plates containing 150 μl RPMI 1640 supplemented with 20% FBS. Serial dilutions of antibody-drug conjugates in cell culture media were prepared at 4× working concentrations, and 50 μl of each dilution was added to the 96-well plates. Following addition of test articles, cells were incubated with test articles for 4 days at 37° C. After 96 hours, growth inhibition was assessed by CellTiter-Glo® (Promega, Madison, Wis.) and luminescence was measured on a plate reader.
(§2) Cell viability was determined by CellTiter-Glo staining after 96 h exposure to ADC. […] Ag1 is an antibody targeting a ubiquitous and readily internalizable antigen on cancer cells, Ag2 is cAC10 antibody targeting CD30(+) cancer cells, Ag3 is h1F6 antibody targeting CD70(+) cancer cells, Ag4 is hMEM102 antibody targeting CD48(+) cancer cells, Ag5 is h20F3 antibody targeting NTB-A expressing cancer cells, and h00 is a non-binding control antibody.

[2] = test system: B-lymphocyte cancer cells (U266); experiment: In vitro cytotoxicity, CellTiter-Glo 96 h, U266; conditions: Homo sapiens, U-266, read-out: Cytotoxic potency as free drug, IC50, U266
Description: as §1, §2

[3] = test system: Burkitt's lymphoma cells (Ramos); experiment: In vitro cytotoxicity, CellTiter-Glo 96 h, Ramos; conditions: Homo sapiens, read-out: Cytotoxic potency as free drug, IC50, Ramos
Description: as §1
(§3) Cell viability was determined by CellTiter-Glo staining after 96 h exposure to ADC.

[4] = test system: renal carcinoma cells (786-O); experiment: In vitro cytotoxicity, CellTiter-Glo 96 h, 786-O; conditions: Homo sapiens, 786-0, read-out: Cytotoxic potency (IC50 class), 786-O
Description: as §1, §3

[5] = test system: acute promyelocytic leukemia cells (HL-60); experiment: In vitro cytotoxicity, CellTiter-Glo 96 h, HL-60; conditions: Homo sapiens, HL-60, read-out: Cytotoxic potency (IC50 class), HL-60
Description: as §1, §2

[6] = test system: Hodgkin's lymphoma cells (L540cy); experiment: In vitro cytotoxicity, CellTiter-Glo 96 h, L540cy; conditions: read-out: Cytotoxic potency (IC50 class), L540cy
[7] = test system: melanoma cells (SK-MEL-5); experiment: In vitro cytotoxicity, CellTiter-Glo 96 h, SK-MEL-5; conditions: Homo sapiens, SK-MEL-5, read-out: Cytotoxic potency as free drug, IC50, SK-MEL-5
Description: as §1, §2

[8] = test system: multiple drug resistant acute promyelocytic leukemia cells (HL-60/RV); experiment: In vitro cytotoxicity, CellTiter-Glo 96 h, HL60/RV; conditions: Homo sapiens, HL-60, read-out: Cytotoxic potency (IC50 class), HL60/RV
Description: as §1, §3

[9] = test system: pancreatic cancer cells (BxPC3); experiment: In vitro cytotoxicity, CellTiter-Glo 96 h, BxPC3; conditions: Homo sapiens, BXPC-3, read-out: Cytotoxic potency (IC50 class), BxPC3
Description: as §1, §3

[10] = test system: B-lymphocyte cancer cells (SU-DHL-4); experiment: In vitro cytotoxicity, CellTiter-Glo 96 h, SU-DHL-4; conditions: Homo sapiens, SU-DHL-4, read-out: Cytotoxic potency as free drug, IC50, SU-DHL-4
Description: as §1, §2

[11] = test system: acute myeloid leukemia cells (MOLM13); experiment: In vitro cytotoxicity, CellTiter-Glo 96 h, MOLM13; conditions: Homo sapiens, MOLM-13, read-out: Cytotoxic potency as free drug, IC50, MOLM13

Row | SMILES | pIC50 [1] | pIC50 [2] | pIC50 [3] | pIC50 [4] | pIC50 [5] | pIC50 [6] | pIC50 [7] | pIC50 [8] | pIC50 [9] | pIC50 [10] | pIC50 [11]
1 | CC[C@@]1(O)C(=O)OCc2c1cc1n(c2=O)Cc2c-1nc1cc3c(cc1c2CN(C)CCNC)OCO3 [Compound 5x] | 7.00 to 8.00 | 7.00 to 8.00 | 7.00 to 8.00 | 7.00 to 8.00 | 6.00 to 7.00 | 7.00 to 8.00 | 7.00 to 8.00 | 6.00 to 7.00 | 6.00 to 7.00 | 7.00 to 8.00 | 7.00 to 8.00
2 | CC[C@@]1(O)C(=O)OCc2c1cc1n(c2=O)Cc2c-1nc1cc3c(cc1c2CNCCOCCOCCN)OCO3 [Compound 5y] | 8.00 to 9.00 | 8.00 to 9.00 | 9.00 to 10.00 | 8.00 to 9.00 | 7.00 to 8.00 | 8.00 to 9.00 | 8.00 to 9.00 | 7.00 to 8.00 | 8.00 to 9.00 | 8.00 to 9.00 | 8.00 to 9.00
3 | CC[C@@]1(O)C(=O)OCc2c1cc1n(c2=O)Cc2c-1nc1cc3c(cc1c2CNCCc1ccccc1)OCO3 [Compound 5z] | 8.00 to 9.00 | 7.00 to 8.00 | 8.00 to 9.00 | 8.00 to 9.00 | 7.00 to 8.00 | 8.00 to 9.00 | 7.00 to 8.00 | 7.00 to 8.00 | 7.00 to 8.00 | 8.00 to 9.00 | 7.00 to 8.00
4 | CCCc1c2c(nc3cc4c(cc13)OCO4)-c1cc3c(c(=O)n1C2)COC(=O)[C@]3(O)CC [Compound 6a] | 8.00 to 9.00 | 8.00 to 9.00 | 9.00 to 10.00 | 8.00 to 9.00 | 8.00 to 9.00 | 9.00 to 10.00 | 8.00 to 9.00 | 8.00 to 9.00 | 8.00 to 9.00 | 9.00 to 10.00 | 8.00 to 9.00
5 | CC[C@@]1(O)C(=O)OCc2c1cc1n(c2=O)Cc2c-1nc1cc3c(cc1c2-c1ccccc1)OCO3 [Compound 6d] | 8.00 to 9.00 | 8.00 to 9.00 | 9.00 to 10.00 | 8.00 to 9.00 | 8.00 to 9.00 | 8.00 to 9.00 | 8.00 to 9.00 | 8.00 to 9.00 | 8.00 to 9.00 | 9.00 to 10.00 | 8.00 to 9.00
6 | CCc1c2c(nc3cc4c(cc13)OCO4)-c1cc3c(c(=O)n1C2)COC(=O)[C@]3(O)CC [Compound 6e] | 9.00 to 10.00 | 8.00 to 9.00 | 9.00 to 10.00 | 9.00 to 10.00 | 8.00 to 9.00 | 9.00 to 10.00 | 8.00 to 9.00 | 8.00 to 9.00 | 8.00 to 9.00 | 9.00 to 10.00 | 8.00 to 9.00
7 | CC[C@@]1(O)C(=O)OCc2c1cc1n(c2=O)Cc2c-1nc1cc3c(cc1c2CC(C)C)OCO3 [Compound 6f] | 8.00 to 9.00 | 8.00 to 9.00 | 8.00 to 9.00 | 8.00 to 9.00 | 7.00 to 8.00 | 8.00 to 9.00 | 8.00 to 9.00 | 8.00 to 9.00 | 8.00 to 9.00 | 8.00 to 9.00 | 8.00 to 9.00
8 | CCC(CC)Cc1c2c(nc3cc4c(cc13)OCO4)-c1cc3c(c(=O)n1C2)COC(=O)[C@]3(O)CC [Compound 6g] | 8.00 to 9.00 | 8.00 to 9.00 | 9.00 to 10.00 | 8.00 to 9.00 | 7.00 to 8.00 | 8.00 to 9.00 | 8.00 to 9.00 | 8.00 to 9.00 | 8.00 to 9.00 | 8.00 to 9.00 | 8.00 to 9.00
9 | CCCCCc1c2c(nc3cc4c(cc13)OCO4)-c1cc3c(c(=O)n1C2)COC(=O)[C@]3(O)CC [Compound 6h] | 8.00 to 9.00 | 8.00 to 9.00 | 9.00 to 10.00 | 9.00 to 10.00 | 7.00 to 8.00 | 8.00 to 9.00 | 8.00 to 9.00 | 7.00 to 8.00 | 8.00 to 9.00 | 9.00 to 10.00 | 7.00 to 8.00
10 | CC[C@@]1(O)C(=O)OCc2c1cc1n(c2=O)Cc2c-1nc1cc3c(cc1c2C1CCCC1)OCO3 [Compound 6i] | 8.00 to 9.00 | 8.00 to 9.00 | 9.00 to 10.00 | 8.00 to 9.00 | 7.00 to 8.00 | 8.00 to 9.00 | 8.00 to 9.00 | 8.00 to 9.00 | 8.00 to 9.00 | 9.00 to 10.00 | 8.00 to 9.00
11 | CC[C@@]1(O)C(=O)OCc2c1cc1n(c2=O)Cc2c-1nc1cc3c(cc1c2C1CCCCCC1)OCO3 [Compound 6j] | 8.00 to 9.00 | 8.00 to 9.00 | 9.00 to 10.00 | 8.00 to 9.00 | 7.00 to 8.00 | 8.00 to 9.00 | 8.00 to 9.00 | 8.00 to 9.00 | 8.00 to 9.00 | 8.00 to 9.00 | 8.00 to 9.00
12 | CCCCCCc1c2c(nc3cc4c(cc13)OCO4)-c1cc3c(c(=O)n1C2)COC(=O)[C@]3(O)CC [Compound 6k] | 8.00 to 9.00 | 8.00 to 9.00 | 9.00 to 10.00 | 8.00 to 9.00 | 6.00 to 7.00 | 8.00 to 9.00 | 8.00 to 9.00 | 7.00 to 8.00 | 8.00 to 9.00 | 8.00 to 9.00 | 7.00 to 8.00
13 | CC[C@@]1(O)C(=O)OCc2c1cc1n(c2=O)Cc2c-1nc1cc3c(cc1c2C(C)(C)C)OCO3 [Compound 6l] | 8.00 to 9.00 | 8.00 to 9.00 | 9.00 to 10.00 | 8.00 to 9.00 | 8.00 to 9.00 | 8.00 to 9.00 | 8.00 to 9.00 | 8.00 to 9.00 | 8.00 to 9.00 | 8.00 to 9.00 | 8.00 to 9.00
14 | CC[C@@]1(O)C(=O)OCc2c1cc1n(c2=O)Cc2c-1nc1cc3c(cc1c2C1CC1)OCO3 [Compound 6m] | 9.00 to 10.00 | 8.00 to 9.00 | 9.00 to 10.00 | 9.00 to 10.00 | 7.00 to 8.00 | 9.00 to 10.00 | 8.00 to 9.00 | 8.00 to 9.00 | 8.00 to 9.00 | 9.00 to 10.00 | 8.00 to 9.00
15 | CC[C@@]1(O)C(=O)OCc2c1cc1n(c2=O)Cc2c-1nc1cc3c(cc1c2CC(C)(C)C)OCO3 [Compound 6n] | 8.00 to 9.00 | 8.00 to 9.00 | 8.00 to 9.00 | 8.00 to 9.00 | 7.00 to 8.00 | 8.00 to 9.00 | 8.00 to 9.00 | 8.00 to 9.00 | 8.00 to 9.00 | 8.00 to 9.00 | 8.00 to 9.00
16 | CC[C@@]1(O)C(=O)OCc2c1cc1n(c2=O)Cc2cc3cc4c(cc3nc2-1)OCO4 [Compound 6o] | 8.00 to 9.00 | 8.00 to 9.00 | 9.00 to 10.00 | 8.00 to 9.00 | 6.00 to 7.00 | 8.00 to 9.00 | 8.00 to 9.00 | 7.00 to 8.00 | 8.00 to 9.00 | 8.00 to 9.00 | 7.00 to 8.00
17 | CC[C@@]1(O)C(=O)OCc2c1cc1n(c2=O)Cc2c-1nc1cc3c(cc1c2C)OCO3 [Compound 6p] | 9.00 to 10.00 | 9.00 to 10.00 | 9.00 to 10.00 | 9.00 to 10.00 | 7.00 to 8.00 | 9.00 to 10.00 | 9.00 to 10.00 | 8.00 to 9.00 | 9.00 to 10.00 | 9.00 to 10.00 | 8.00 to 9.00
18 | CC[C@@]1(O)C(=O)OCc2c1cc1n(c2=O)Cc2c-1nc1cc(F)c(C)c3c1c2[C@@H](NC(=O)CO)CC3 [Compound 8a] | 8.00 to 9.00 | 7.00 to 8.00 | 8.00 to 9.00 | 8.00 to 9.00 | 6.00 to 7.00 | 8.00 to 9.00 | 7.00 to 8.00 | 7.00 to 8.00 | 7.00 to 8.00 | 8.00 to 9.00 | 7.00 to 8.00
19 | CC[C@@]1(O)C(=O)OCc2c1cc1n(c2=O)Cc2c-1nc1cc(F)c(C)c3c1c2[C@@H](N)CC3 [Compound 8b] | 8.00 to 9.00 | 8.00 to 9.00 | 9.00 to 10.00 | 8.00 to 9.00 | 7.00 to 8.00 | 8.00 to 9.00 | 8.00 to 9.00 | 7.00 to 8.00 | 8.00 to 9.00 | 8.00 to 9.00 | 7.00 to 8.00
